The source made the active and inactive calls. No cut-off for these calls is given here.

What is called Kd is the constant that tells how readily two partners part at equilibrium. The EC50 is the concentration at which the effect is half-maximal. For orientation: CC50 means the concentration giving 50% cytotoxicity.

The first data set concerns Vero C1008. The experiment in a line: Cytotoxicity against African Green monkey Vero E6 cells at 10 uM measured after 24 to 48 hrs by CCK8 assay. The class given is cell-based. The settings on record: chlorocebus sabaeus, vero c1008, 10 µM, time 24-48 hrs.
For the compound `COc1c(O)c2c(=O)cc(OC)c3c4c(OC)cc(=O)c5c(O)c(OC)c6c(c(c1C[C@](C)(O)[C@H]6C(C)=O)c23)c54`, the Activity result is on record as “Non-Toxic”.
Same read-out and setting: under `COc1c2c3c4c(c(OC)c(=O)c5c(O)cc(OC)c(c6c(OC)cc(O)c(c1=O)c63)c54)[C@@H](C(C)=O)[C@@](C)(O)C2` [HYPOCRELLIN A] stands “Non-Toxic”.

The subject of the next data set is SARS-CoV-2. The experiment in a line: Antiviral activity against SARS-CoV-2 Wuhan-HU-1 infection on African green monkey Vero E6 cells assessed by drecrease in viral nucleocapsid N-protein expression measured after 48 hrs by DAPI staining based immunofluorescence microscopy. The settings on record: Severe acute respiratory syndrome coronavirus 2, dose 0.08-2.2 µM. The data set is classed as functional, organism-based.
With `COc1c(O)c2c(=O)cc(OC)c3c4c(OC)cc(=O)c5c(O)c(OC)c6c(c(c1C[C@](C)(O)[C@H]6C(C)=O)c23)c54`, the Activity result was “Dose-Dependent Effect”.
On the same count and under the same terms, under `COc1c2c3c4c(c(OC)c(=O)c5c(O)cc(OC)c(c6c(OC)cc(O)c(c1=O)c63)c54)[C@@H](C(C)=O)[C@@](C)(O)C2` [HYPOCRELLIN A] stands “Dose-Dependent Effect”.

A further data set concerns SARS-CoV-2. The experiment in a line: Antiviral activity against SARS-CoV-2 Wuhan-HU-1 infection on African green monkey Vero E6 cells assessed by drecrease in viral nucleocapsid N-protein expression at 20 uM measured after 48 hrs by DAPI staining based immunofluorescence microscopy. The class given is functional, organism-based. Particulars: Severe acute respiratory syndrome coronavirus 2.
Turning to `COC1=C(CC(C)=O)C(=O)c2c(c(O)cc(OC)c2-c2c(OC)cc(O)c3c2C(=O)C(CC(C)=O)=C(OC)C3=O)C1=O`, the outcome was inactive.

The target of the next data set is Spike glycoprotein (Severe acute respiratory syndrome coronavirus 2, UniProt P0DTC2). As to the kind of experiment: Binding affinity to SARS-CoV-2 spike glycoprotein S RBD at 25 degreeC by surface plasmon resonance assay.
Details: not given
For orientation: In SPR one partner is held on a chip, and binding of the other changes the refractive index at the surface.
`COc1c(O)c2c(=O)cc(OC)c3c4c(OC)cc(=O)c5c(O)c(OC)c6c(c(c1C[C@](C)(O)[C@H]6C(C)=O)c23)c54` came in with a Kd of 0.0228 µM.
Still for that read-out and setting: under `COc1c2c3c4c(c(OC)c(=O)c5c(O)cc(OC)c(c6c(OC)cc(O)c(c1=O)c63)c54)[C@@H](C(C)=O)[C@@](C)(O)C2` [HYPOCRELLIN A] stands 0.0379 µM.

A further data set deals with Spike glycoprotein (Severe acute respiratory syndrome coronavirus 2) (UniProt P0DTC2). The experiment in a line: Inhibition of spike glycoprotein S in SARS-CoV-2 pseudovirus infected in human 293T/ACE2 cells assessed as inhibition of viral infection. The class given is cell-based.
Details: not given
As for `COc1c(O)c2c(=O)cc(OC)c3c4c(OC)cc(=O)c5c(O)c(OC)c6c(c(c1C[C@](C)(O)[C@H]6C(C)=O)c23)c54`, the inhibition entry is “inactive”.
On to `COC1=CC(=O)c2c(O)c(OC)c3c(c2C1=O)-c1c(c(OC)c(O)c2c1C(=O)C(OC)=CC2O)C[C@](C)(O)[C@@H]3C(C)=O` (stereo not given in full), for which the inhibition entry is “inactive”.
On the same count and under the same terms, under `COc1c2c3c4c(c(OC)c(=O)c5c(O)cc(OC)c(c6c(OC)ccc(c1=O)c63)c54)CC(C)=C2C(C)=O` stands “inactive”.
On the same count and under the same terms, under `COc1c2c3c4c(c(OC)c(=O)c5c(O)cc(OC)c(c6c(OC)cc(O)c(c1=O)c63)c54)[C@@H](C(C)=O)[C@@](C)(O)C2` [HYPOCRELLIN A] stands “inactive”; under `COC1=C2c3c4c5c(c(O)cc(OC)c5c5c(OC)cc(O)c(c35)C1=O)C(=O)[C@@H](OC)[C@@]41C[C@](C)(O)[C@@H]2[C@@]1(C)O`, “inactive”; under `COC1=C2c3c4c5c(c(O)cc(OC)c5c5c(OC)cc(O)c(c35)C1=O)C(=O)[C@@H](OC)[C@@]41C[C@](C)(O)[C@@H]2[C@]1(C)O`, “inactive”.
On to `COC1=C(CC(C)=O)C(=O)c2c(c(O)cc(OC)c2-c2c(OC)cc(O)c3c2C(=O)C(CC(C)=O)=C(OC)C3=O)C1=O`, for which the inhibition entry was “inactive”.

The next data set shares this target. The experiment in a line: Inhibition of SARS-CoV-2 spike glycoprotein S expressed in human HEK293T cells cotransfected with pAAV-IRES-GFP assessed as inhibition of membrane fusion to African green monkey Vero E6 cells causing suppression of syncytium formation at 2 uM preincubated for 30 mins measured after 24 hrs by cell-cell fusion based fluorescence microscopy. Particulars: time 24.5 hrs.
Consider `COc1c(O)c2c(=O)cc(OC)c3c4c(OC)cc(=O)c5c(O)c(OC)c6c(c(c1C[C@](C)(O)[C@H]6C(C)=O)c23)c54`, for which the inhibition result was “inactive”.
On the same count and under the same terms, under `COc1c2c3c4c(c(OC)c(=O)c5c(O)cc(OC)c(c6c(OC)cc(O)c(c1=O)c63)c54)[C@@H](C(C)=O)[C@@](C)(O)C2` [HYPOCRELLIN A] stands “inactive”.

In the next data set the test system is SARS-CoV-2. As to the kind of experiment: Antiviral activity against SARS-CoV-2 Wuhan-HU-1 infected in African green monkey Vero E6 cells assessed as inhibition of viral infection when cells were preincubated for 1 hr followed by viral infection measured after 24 hrs by qPCR analysis. The data set is classed as functional, organism-based. The settings on record: Severe acute respiratory syndrome coronavirus 2, Wuhan-HU-1, Vero C1008.
On to `COc1c(O)c2c(=O)cc(OC)c3c4c(OC)cc(=O)c5c(O)c(OC)c6c(c(c1C[C@](C)(O)[C@H]6C(C)=O)c23)c54`, for which the EC50 was determined as 0.21 µM.
On to `COc1c2c3c4c(c(OC)c(=O)c5c(O)cc(OC)c(c6c(OC)cc(O)c(c1=O)c63)c54)[C@@H](C(C)=O)[C@@](C)(O)C2` [HYPOCRELLIN A], for which the EC50 is 0.22 µM.

Test system in the next data set: not listed separately
As to the kind of experiment: Cytotoxicity against human 293T/ACE2 cells measured after 48 hrs by CCK8 assay.
Details: not given
The data set is classed as cell-based.
In the case of `COc1c(O)c2c(=O)cc(OC)c3c4c(OC)cc(=O)c5c(O)c(OC)c6c(c(c1C[C@](C)(O)[C@H]6C(C)=O)c23)c54`, the CC50 at 48 h came out at 2.5 µM.
The same measure, in the same setting: the figure for `COC1=CC(=O)c2c(O)c(OC)c3c(c2C1=O)-c1c(c(OC)c(O)c2c1C(=O)C(OC)=CC2O)C[C@](C)(O)[C@@H]3C(C)=O` (stereo not given in full) is over 10 µM; for `COc1c2c3c4c(c(OC)c(=O)c5c(O)cc(OC)c(c6c(OC)ccc(c1=O)c63)c54)CC(C)=C2C(C)=O` it is over 10 µM; for `COc1c2c3c4c(c(OC)c(=O)c5c(O)cc(OC)c(c6c(OC)cc(O)c(c1=O)c63)c54)[C@@H](C(C)=O)[C@@](C)(O)C2` [HYPOCRELLIN A] it is 2 µM.
`COC1=C2c3c4c5c(c(O)cc(OC)c5c5c(OC)cc(O)c(c35)C1=O)C(=O)[C@@H](OC)[C@@]41C[C@](C)(O)[C@@H]2[C@@]1(C)O` gave a CC50 at 48 h of over 10 µM.
On the same count and under the same terms, the figure for `COC1=C2c3c4c5c(c(O)cc(OC)c5c5c(OC)cc(O)c(c35)C1=O)C(=O)[C@@H](OC)[C@@]41C[C@](C)(O)[C@@H]2[C@]1(C)O` is over 10 µM.
Same read-out and setting: the figure for `COC1=C(CC(C)=O)C(=O)c2c(c(O)cc(OC)c2-c2c(OC)cc(O)c3c2C(=O)C(CC(C)=O)=C(OC)C3=O)C1=O` is over 10 µM.

These data come from ChEMBL document CHEMBL4813952, “Axial Chiral Binaphthoquinone and Perylenequinones from the Stromata of Hypocrella bambusae Are SARS-CoV-2 Entry Inhibitors” (J Nat Prod, 2021).
